Test results as given in patent publication US4864023A, “Pyrido(3,2,1-IJ)-1,3,4-benzoxadiazine derivatives” (priority 1988, dated 1989).
Where two headings read alike, the source gives them in different places.

How the values were obtained:
[1] = system: Clostridium moniliforme ATCC 25546; assay: in vitro antibacterial activity, standard agar dilution method; type: cell-based; details: ATCC25546, anaerobic, read-out: minimum inhibitory concentration (MIC)
[2] = system: Bacteroides fragilis ATCC 23745; assay: as above; type: cell-based; details: ATCC23745, anaerobic, read-out: minimum inhibitory concentration (MIC)
[3] = system: Bacteroides distasonis NR 2578; assay: as above; type: cell-based; details: Parabacteroides distasonis, NR2578, anaerobic, read-out: minimum inhibitory concentration (MIC)
[4] = system: Proteus vulgaris OX19 ATCC 6898; assay: as above; type: cell-based; details: ATCC6898, aerobic, read-out: minimum inhibitory concentration (MIC)
[5] = system: Myoplasma hominis NR 2952; assay: as above; type: cell-based; details: read-out: minimum inhibitory concentration (MIC)
[6] = system: Pseudomonas stutzeri IFO 12695; assay: as above; type: cell-based; details: Stutzerimonas stutzeri, IFO12695, aerobic, read-out: minimum inhibitory concentration (MIC)
[7] = system: Bacteroides fragilis NR 2582; assay: as above; type: cell-based; details: NR2582, anaerobic, read-out: minimum inhibitory concentration (MIC)
[8] = system: Pseudomonas aeruginosa A3; assay: as above; type: cell-based; details: aerobic, read-out: minimum inhibitory concentration (MIC)
[9] = system: Clostridium perfringens NR 2612; assay: microbe, parasite or virus in culture; type: cell-based; details: NR2612, read-out: minimum inhibitory concentration (MIC)
[10] = system: Bacteroides fragilis NR 2583; assay: in vitro antibacterial activity, standard agar dilution method; type: cell-based; details: NR2583, anaerobic, read-out: minimum inhibitory concentration (MIC)
[11] = system: Staphylococcus aureus NR 2855; assay: as above; type: cell-based
[12] = system: Alcaligenes faecalis IFO 13111; assay: as above; type: cell-based; details: IFO13111, aerobic, read-out: minimum inhibitory concentration (MIC)
[13] = system: Bacteroides fragilis NR 2579; assay: as above; type: cell-based; details: NR2579, anaerobic, read-out: minimum inhibitory concentration (MIC)
[14] = system: Bifidobacterium adolescentis ATCC 15703; assay: as above; type: cell-based; details: ATCC15703, anaerobic, read-out: minimum inhibitory concentration (MIC)
[15] = system: Salmonella typhimurium IFO 12529; assay: as above; type: cell-based; details: Salmonella enterica, aerobic, read-out: minimum inhibitory concentration (MIC)
[16] = system: Enterococcus faecalis NR 2943; assay: as above; type: cell-based; details: NR2943, aerobic, read-out: minimum inhibitory concentration (MIC)
[17] = system: Staphylococcus aureus Smith; assay: as above; type: cell-based; details: Staphylococcus aureus Smith; aerobic; agar dilution; read-out: minimum inhibitory concentration (MIC)
[18] = system: Bacteroides thetaiotaomicron NR 2588; assay: as above; type: cell-based; details: NR2588, anaerobic, read-out: minimum inhibitory concentration (MIC)
[19] = system: Klebsiella pneumoniae FDA PCI 602; assay: as above; type: cell-based; details: FDAPCI602, aerobic, read-out: minimum inhibitory concentration (MIC)
[20] = system: Citrobacter freundii IFO 12681; assay: as above; type: cell-based; details: IFO12681, aerobic, read-out: minimum inhibitory concentration (MIC)
[21] = system: Bordetella bronchiseptica ATCC 4617; assay: as above; type: cell-based; details: ATCC4617, aerobic, read-out: minimum inhibitory concentration (MIC)
[22] = system: Bacteroides fragilis NR 2584; assay: as above; type: cell-based; details: NR2584, anaerobic, read-out: minimum inhibitory concentration (MIC)
[23] = acute toxicity by oral administration; details: mouse, in vivo, po
Excerpt: The acute toxicity of these compounds was examined by oral administration in ICR mice.

[24] = system: Peptococcus variabilis ATCC 14955; assay: in vitro antibacterial activity, standard agar dilution method; type: cell-based; details: anaerobic, read-out: minimum inhibitory concentration (MIC)
[25] = system: Escherichia coli NIHJ JC-2; assay: as above; type: cell-based; details: NIHJJC2, aerobic, read-out: minimum inhibitory concentration (MIC)
[26] = system: Serratia marcescens IFO 12648; assay: as above; type: cell-based; details: IFO12648, aerobic, read-out: minimum inhibitory concentration (MIC)
[27] = system: Staphylococcus aureus FDA 209P JC-1; assay: as above; type: cell-based; details: FDA209P, read-out: minimum inhibitory concentration (MIC)
[28] = system: Enterobacter cloacae NR 2946; assay: as above; type: cell-based; details: NR2946, aerobic, read-out: minimum inhibitory concentration (MIC)
[29] = system: Staphylococcus epidermidis NR 2942; assay: as above; type: cell-based; details: NR2942, aerobic, read-out: minimum inhibitory concentration (MIC)
[30] = system: Staphylococcus epidermidis IFO 12993; assay: as above; type: cell-based; details: IFO12993, aerobic, read-out: minimum inhibitory concentration (MIC)
[31] = system: Enterobacter aerogenes NR 2945; assay: as above; type: cell-based; details: Klebsiella aerogenes, NR2945, aerobic, read-out: minimum inhibitory concentration (MIC)
[32] = system: Propionibacterium acnes ATCC 11828; assay: as above; type: cell-based; details: Cutibacterium acnes, ATCC11828, anaerobic, read-out: minimum inhibitory concentration (MIC)
[33] = system: Escherichia coli NR 2630; assay: as above; type: cell-based; details: NR2630; Escherichia coli NR 2630; aerobic; agar dilution; read-out: minimum inhibitory concentration (MIC)
[34] = system: Clostridium botulinum NR 26ll; assay: microbe, parasite or virus in culture; type: cell-based; details: NR26LL, read-out: minimum inhibitory concentration (MIC)

CN1CCN(c2c(F)cc3c(=O)c(C(=O)O)cn4c3c2OCN4C)CC1 [Example 5, 9-fluoro-3-methyl-10-(4-methyl-1-piperazinyl)-7-oxo-2,3-dihydro-7H-pyrido[3,2,1-ij]-1,3,4-benzoxadiazine-6-carboxylic acid]
0.78 µg/mL: MIC [1] | MIC [2] | MIC [3] | MIC [7] | MIC [22] | MIC [24] | MIC [32]
3.13 µg/mL: MIC [13] | MIC [16]
0.025 µg/mL: MIC [6] | MIC [15] | MIC [25] | MIC [28]
> 2000 mg/kg: LD50 [23]
0.39 µg/mL: MIC [9] | MIC [10] | MIC [12] | MIC [14] | MIC ([27]; Staphylococcus aureus) | MIC [29] | MIC [30]
1.56 µg/mL: MIC [18]
0.1 µg/mL: MIC [5] | MIC [19] | MIC [26] | MIC [34]
0.2 µg/mL: MIC [8] | MIC ([11]; NR2855, Staphylococcus aureus NR 2855, aerobic, agar dilution, read-out: minimum inhibitory concentration (MIC)) | MIC [17] | MIC [21]
0.013 µg/mL: MIC [4] | MIC [20] | MIC [31] | MIC [33]

CN1COc2c(N3CCC(N)C3)c(F)cc3c(=O)c(C(=O)O)cn1c23 (centres unmarked) [Example 30, 10-(3-amino-1-pyrrolidinyl)-9-fluoro-3-methyl-7-oxo-2,3-dihydro-7H-pyrido[3,2,1-ij]-1,3,4-benzoxadiazine-6-carboxylic acid]
3.13 µg/mL: MIC [16]
> 2000 mg/kg: LD50 [23]
0.05 µg/mL: MIC [8] | MIC [17] | MIC [26] | MIC ([27]; Staphylococcus aureus FDA 209P JC-1, aerobic, agar dilution)
0.013 µg/mL: MIC [20] | MIC [25] | MIC [28] | MIC [34]
0.0033 µg/mL: MIC [6] | MIC [31]
0.78 µg/mL: MIC [3] | MIC [18] | MIC [22] | MIC [32]
1.56 µg/mL: MIC [12] | MIC [13] | MIC [21]
0.0065 µg/mL: MIC [4] | MIC [15] | MIC [33]
0.2 µg/mL: MIC [2] | MIC [24] | MIC [29] | MIC [30]
0.39 µg/mL: MIC [7] | MIC ([11]; Staphylococcus aureus, NR2855, read-out: minimum inhibitory concentration (MIC))
0.1 µg/mL: MIC [1] | MIC [5] | MIC [9] | MIC [10] | MIC [14] | MIC [19]
